Assays:
Type in all cases: cell-based
[1] = target: T1, von Hippel-Lindau disease tumor suppressor/Steroid hormone receptor ERR1 (Homo sapiens, UniProt P11474+P40337); experiment: Protac activity at VHL/ERRalpha in epoxomicin pre-treated human MCF7 cells assessed as induction of ERRalpha protein degradation incubated for 8 hrs by Western blot analysis
[2] = target: T1, von Hippel-Lindau disease tumor suppressor/Steroid hormone receptor ERR1; experiment: Protac activity at VHL/ERRalpha in epoxomicin pre-treated human MCF7 cells assessed as induction of ERRalpha protein degradation at 1 uM incubated for 8 hrs by Western blot analysis relative to control
[3] = target: T2, Estrogen receptor/E3 ubiquitin-protein ligase XIAP (Homo sapiens, UniProt P03372+P98170); experiment: Protac activity at ERalpha/XIAP in human MCF7 cells assessed as induction of ERalpha degradation after 4 hrs by Western blot analysis
[4] = target: T2, Estrogen receptor/E3 ubiquitin-protein ligase XIAP; experiment: Protac activity at ERalpha/XIAP in human MCF7 cells assessed as induction of ERalpha degradation at 100 nM by Western blot analysis relative to control
[5] = target: T3, Protein cereblon/B-cell lymphoma 6 protein (Homo sapiens, UniProt Q96SW2+P41182); experiment: Protac activity at CRBN/BCL6 in human SUDHL4 cells assessed as induction of BCL6 protein degradation after 4 hrs by Western blot analysis
T3 sequence (Q96SW2 whole entry, looked up, other chains not shown): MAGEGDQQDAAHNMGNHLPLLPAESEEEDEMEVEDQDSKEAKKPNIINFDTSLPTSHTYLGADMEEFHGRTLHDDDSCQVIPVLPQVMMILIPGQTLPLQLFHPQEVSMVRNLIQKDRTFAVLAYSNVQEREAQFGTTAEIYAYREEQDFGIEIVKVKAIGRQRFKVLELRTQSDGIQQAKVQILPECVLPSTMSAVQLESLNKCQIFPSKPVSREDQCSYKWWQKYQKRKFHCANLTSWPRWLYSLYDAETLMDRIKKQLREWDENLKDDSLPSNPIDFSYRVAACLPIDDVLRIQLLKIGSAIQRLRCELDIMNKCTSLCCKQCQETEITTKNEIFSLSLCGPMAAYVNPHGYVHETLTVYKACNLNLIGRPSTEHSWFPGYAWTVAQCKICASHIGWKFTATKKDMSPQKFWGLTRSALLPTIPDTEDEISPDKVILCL

[6] = target: T3, Protein cereblon/B-cell lymphoma 6 protein; experiment: Protac activity at CRBN/BCL6 in human SUDHL4 cells assessed as induction of BCL6 protein degradation at 1 uM after 4 hrs by Western blot analysis relative to control
[7] = target: T4, Protein cereblon/Tyrosine-protein kinase BTK (Homo sapiens, UniProt Q06187+Q96SW2); experiment: Protac activity at CRBN/BTK in human Ramos cells assessed as induction of BTK protein degradation incubated for 24 hrs by Western blot analysis
[8] = target: T4, Protein cereblon/Tyrosine-protein kinase BTK; experiment: Protac activity at CRBN/BTK in human Ramos cells assessed as induction of BTK protein degradation at 300 nM incubated for 24 hrs by Western blot analysis relative to control
[9] = target: T5, von Hippel-Lindau disease tumor suppressor/Receptor-type tyrosine-protein kinase FLT3 (Homo sapiens, UniProt P36888+P40337); experiment: Protac activity at VHL/FLT3 in human MOLM14 cells assessed as induction of FLT3 protein degradation measured after 4 hrs by immunoblot analysis
Target sequence in this assay (P36888 whole entry): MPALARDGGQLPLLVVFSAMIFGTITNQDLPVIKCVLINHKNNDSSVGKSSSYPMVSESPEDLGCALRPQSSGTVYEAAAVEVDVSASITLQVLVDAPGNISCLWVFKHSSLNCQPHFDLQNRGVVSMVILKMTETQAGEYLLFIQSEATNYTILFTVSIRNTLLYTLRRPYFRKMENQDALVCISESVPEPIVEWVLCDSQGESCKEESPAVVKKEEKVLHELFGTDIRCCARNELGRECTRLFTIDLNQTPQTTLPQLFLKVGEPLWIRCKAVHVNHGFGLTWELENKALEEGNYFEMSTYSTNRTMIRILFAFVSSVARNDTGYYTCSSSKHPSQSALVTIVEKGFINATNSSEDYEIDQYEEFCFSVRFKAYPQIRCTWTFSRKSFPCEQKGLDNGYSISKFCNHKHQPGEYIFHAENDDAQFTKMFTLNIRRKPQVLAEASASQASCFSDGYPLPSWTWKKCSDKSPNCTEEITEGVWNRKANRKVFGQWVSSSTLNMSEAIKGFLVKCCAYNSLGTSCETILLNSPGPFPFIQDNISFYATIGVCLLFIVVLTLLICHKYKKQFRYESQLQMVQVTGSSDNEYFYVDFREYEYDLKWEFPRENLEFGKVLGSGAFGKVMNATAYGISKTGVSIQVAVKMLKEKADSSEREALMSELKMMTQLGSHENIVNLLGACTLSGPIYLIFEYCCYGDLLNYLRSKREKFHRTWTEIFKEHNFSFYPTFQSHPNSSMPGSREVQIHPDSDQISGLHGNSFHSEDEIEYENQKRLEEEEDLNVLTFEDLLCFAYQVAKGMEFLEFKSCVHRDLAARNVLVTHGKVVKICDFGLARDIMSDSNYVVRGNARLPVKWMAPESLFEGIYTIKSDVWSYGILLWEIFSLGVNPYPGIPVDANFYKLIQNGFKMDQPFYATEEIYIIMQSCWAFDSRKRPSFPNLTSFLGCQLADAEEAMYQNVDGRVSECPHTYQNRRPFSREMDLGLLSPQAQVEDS
Target sequence in this assay (P40337 whole entry): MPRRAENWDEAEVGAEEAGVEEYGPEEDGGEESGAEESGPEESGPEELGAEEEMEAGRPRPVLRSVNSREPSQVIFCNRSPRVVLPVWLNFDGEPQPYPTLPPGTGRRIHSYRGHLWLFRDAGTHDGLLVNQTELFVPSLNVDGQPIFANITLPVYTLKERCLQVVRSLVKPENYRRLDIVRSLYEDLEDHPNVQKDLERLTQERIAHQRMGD

[10] = target: T5, von Hippel-Lindau disease tumor suppressor/Receptor-type tyrosine-protein kinase FLT3; experiment: Protac activity at VHL/FLT3 in human MOLM14 cells assessed as induction of FLT3 protein degradation at 50 nM measured after 4 hrs by immunoblot analysis relative to control
Target sequence in this assay (P36888 27-993 limits assumed): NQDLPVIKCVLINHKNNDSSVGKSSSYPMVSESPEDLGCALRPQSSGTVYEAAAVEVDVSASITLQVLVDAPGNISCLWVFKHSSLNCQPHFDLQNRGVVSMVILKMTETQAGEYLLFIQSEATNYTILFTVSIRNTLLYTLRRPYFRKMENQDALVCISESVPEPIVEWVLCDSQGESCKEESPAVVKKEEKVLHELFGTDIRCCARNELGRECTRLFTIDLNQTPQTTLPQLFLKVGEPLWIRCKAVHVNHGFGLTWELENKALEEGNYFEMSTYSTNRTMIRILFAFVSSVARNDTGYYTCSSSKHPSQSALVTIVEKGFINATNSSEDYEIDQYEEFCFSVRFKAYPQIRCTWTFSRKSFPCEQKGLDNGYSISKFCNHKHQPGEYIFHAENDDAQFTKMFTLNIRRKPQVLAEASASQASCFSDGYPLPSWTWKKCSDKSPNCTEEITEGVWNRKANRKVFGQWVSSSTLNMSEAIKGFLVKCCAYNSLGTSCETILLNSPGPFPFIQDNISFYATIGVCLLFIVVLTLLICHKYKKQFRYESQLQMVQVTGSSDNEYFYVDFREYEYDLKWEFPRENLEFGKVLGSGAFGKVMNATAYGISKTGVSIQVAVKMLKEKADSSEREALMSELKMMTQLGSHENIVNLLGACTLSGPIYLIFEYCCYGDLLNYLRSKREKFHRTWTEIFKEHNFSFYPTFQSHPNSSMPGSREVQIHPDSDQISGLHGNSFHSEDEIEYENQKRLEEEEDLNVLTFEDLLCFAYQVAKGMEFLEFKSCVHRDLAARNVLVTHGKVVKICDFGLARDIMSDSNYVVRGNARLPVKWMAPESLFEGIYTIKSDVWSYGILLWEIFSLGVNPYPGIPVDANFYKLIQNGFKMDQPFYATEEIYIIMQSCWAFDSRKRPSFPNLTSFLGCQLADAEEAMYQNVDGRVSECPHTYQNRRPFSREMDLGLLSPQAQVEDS
Target sequence in this assay (P40337 whole entry partner): as the sequence (P40337 whole entry) above

[11] = target: T6, Protein cereblon/Tyrosine-protein kinase BTK (Homo sapiens, UniProt Q06187+Q96SW2, C481S); experiment: Protac activity at CRBN/BTK C481S mutant in human MCL cells assessed as induction of BTK C481S mutant degradation
T6 sequence (Q06187 2-659 C481S limits assumed, stated change not applied): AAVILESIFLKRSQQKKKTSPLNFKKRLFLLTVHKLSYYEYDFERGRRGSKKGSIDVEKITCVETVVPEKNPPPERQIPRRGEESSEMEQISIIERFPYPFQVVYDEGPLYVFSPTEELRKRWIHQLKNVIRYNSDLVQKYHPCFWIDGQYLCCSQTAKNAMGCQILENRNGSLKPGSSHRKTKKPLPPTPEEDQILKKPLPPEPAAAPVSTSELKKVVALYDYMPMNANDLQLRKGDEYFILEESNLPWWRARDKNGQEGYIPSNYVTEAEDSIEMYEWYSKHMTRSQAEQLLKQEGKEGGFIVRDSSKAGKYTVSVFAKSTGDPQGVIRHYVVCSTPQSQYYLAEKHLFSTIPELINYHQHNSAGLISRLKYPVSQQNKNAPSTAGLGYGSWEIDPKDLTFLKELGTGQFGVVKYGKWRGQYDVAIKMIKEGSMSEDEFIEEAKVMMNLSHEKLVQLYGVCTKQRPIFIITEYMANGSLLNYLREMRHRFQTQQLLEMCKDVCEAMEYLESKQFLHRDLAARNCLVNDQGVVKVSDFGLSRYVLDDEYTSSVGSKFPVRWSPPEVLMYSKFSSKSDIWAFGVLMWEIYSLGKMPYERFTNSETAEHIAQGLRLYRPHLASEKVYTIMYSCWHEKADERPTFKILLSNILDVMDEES
T6 sequence (Q96SW2 whole entry, stated change not applied): as the sequence (Q96SW2 whole entry, looked up, other chains not shown) above

[12] = test system: Protein cereblon/Tyrosine-protein kinase BTK (Homo sapiens), Q06187+Q96SW2 [C481S]; experiment: Protac activity at CRBN/BTK C481S mutant in human MCL cells assessed as induction of BTK C481S mutant degradation at 500 nM relative to control
[13] = target: T6, Protein cereblon/Tyrosine-protein kinase BTK; experiment: Protac activity at CRBN/BTK C481S mutant in human MM cells assessed as induction of BTK C481S mutant protein degradation
[14] = test system: Protein cereblon/Tyrosine-protein kinase BTK (Homo sapiens), Q06187+Q96SW2 [C481S]; experiment: Protac activity at CRBN/BTK C481S mutant in human MM cells assessed as induction of BTK C481S mutant protein degradation at 500 nM relative to control
[15] = target: T7, Protein cereblon/Cyclin-dependent kinase 9 (Homo sapiens, UniProt P50750+Q96SW2); experiment: Protac activity at CRBN/CDK9 in human MOLT4 cells assessed as induction of CDK9 protein degradation after 6 hrs by Western blot analysis
[16] = target: T7, Protein cereblon/Cyclin-dependent kinase 9; experiment: Protac activity at CRBN/CDK9 in human MOLT4 cells assessed as induction of CDK9 protein degradation after 6 hrs by Western blot analysis relative to control
[17] = target: von Hippel-Lindau disease tumor suppressor/Receptor-interacting serine/threonine-protein kinase 2 (Homo sapiens) (UniProt O43353+P40337); experiment: Protac activity at VHL/RIPK2 in human THP1 cells assessed as induction of RIPK2 protein degradation at 10 nM incubated for 16 hrs by Western blot analysis relative to control
von Hippel-Lindau disease tumor suppressor/Receptor-interacting serine/threonine-protein kinase 2 (Homo sapiens), sequence (O43353 whole entry, looked up): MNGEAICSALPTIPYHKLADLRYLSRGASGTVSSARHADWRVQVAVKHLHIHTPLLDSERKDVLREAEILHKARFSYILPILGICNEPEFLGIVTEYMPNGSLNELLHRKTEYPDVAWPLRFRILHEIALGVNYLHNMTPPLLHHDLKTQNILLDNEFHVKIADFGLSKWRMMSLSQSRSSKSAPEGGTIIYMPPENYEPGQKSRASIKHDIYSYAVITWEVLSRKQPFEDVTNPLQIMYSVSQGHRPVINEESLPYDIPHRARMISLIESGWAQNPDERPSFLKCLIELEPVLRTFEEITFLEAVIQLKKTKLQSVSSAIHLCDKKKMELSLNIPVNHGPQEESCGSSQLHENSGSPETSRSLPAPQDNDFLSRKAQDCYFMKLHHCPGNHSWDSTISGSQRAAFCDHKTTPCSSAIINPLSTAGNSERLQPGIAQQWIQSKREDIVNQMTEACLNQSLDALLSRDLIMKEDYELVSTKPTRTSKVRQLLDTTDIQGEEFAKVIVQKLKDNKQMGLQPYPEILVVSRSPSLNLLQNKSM
von Hippel-Lindau disease tumor suppressor/Receptor-interacting serine/threonine-protein kinase 2 (Homo sapiens), sequence (P40337 whole entry, looked up): as the sequence (P40337 whole entry) above

Homo sapiens = species: Homo sapiens; experiment: Protac activity at CRBN/FKBP12 F36V mutant (unknown origin) expressed in human 293FT cells assessed as induction of FKBP12 F36V mutant protein degradation incubated for 4 hrs by Western blot analysis relative to control
[18] = Protac activity at CRBN/FKBP12 F36V mutant (unknown origin) expressed in human 293FT cells assessed as induction of FKBP12 F36V mutant protein degradation incubated for 4 hrs by Western blot analysis
[19] = target: Protein cereblon/Bromodomain-containing protein 4 (Homo sapiens) (UniProt O60885+Q96SW2); experiment: Protac activity at Cereblon/BRD4 in human MV411 cells assessed as induction of BRD4 protein degradation at 1 uM incubated for 18 hrs by immunoblot analysis relative to control

In the case of `COc1cc(/C=C2\SC(=O)N(CCOCCC(=O)N[C@H](C(=O)N3C[C@H](O)C[C@H]3C(=O)NCc3ccc(-c4scnc4C)cc3)C(C)(C)C)C2=O)ccc1Oc1ccc(C#N)cc1C(F)(F)F`, the DC50 [1] is reported as 100 nM and the Emax [2] is reported as 86%.
`CC/C(=C(\c1ccc(O)cc1)c1ccc(OCCN(C)C(=O)COCCOCCOCCOc2cccc(O[C@H]3C[C@@H](C(=O)N[C@@H]4CCCc5ccccc54)N(C(=O)[C@@H](NC(=O)[C@H](C)NC)C4CCCCC4)C3)c2)cc1)c1ccccc1` showed a DC50 [3] of less than 3 nM and an Emax [4] of 80%.
Compound `CN1C(=O)CCc2cc3cc(c21)OCCOC[C@H]1CN(C(=O)CCC(=O)NCCCOCCOCCOCCOCCOc2cccc4c2C(=O)N(C2CCC(=O)NC2=O)C4=O)CCN1c1ncc(Cl)c(n1)N3` (stereo not given in full) has a DC50 [5] of less than 1000 nM and an Emax [6] of 84%.
Work on `NC(=O)c1c(-c2ccc(Oc3ccc(F)cc3F)cc2)nn([C@@H]2CCCN(C(=O)OCCOCCOCCOCCOCCOCCNc3cccc4c3C(=O)N(C3CCC(=O)NC3=O)C4=O)C2)c1N` (stereo not given in full) yielded a DC50 [7] of 1.1 nM and an Emax [8] of 87%.
In the case of `Cc1ncsc1-c1ccc(CNC(=O)[C@@H]2C[C@@H](O)CN2C(=O)[C@@H](NC(=O)CCOCCOCCOc2ccc3c(c2)sc2nc(-c4ccc(NC(=O)Nc5cc(C(C)(C)C)on5)cc4)cn23)C(C)(C)C)cc1`, the DC50 [9] is reported as less than 5 nM and the Emax [10] is reported as greater than 90%.
For `Nc1ncnc2c1c(-c1ccc(Oc3ccccc3)cc1)nn2[C@@H]1CCCN(C(=O)c2cn(CCOCCOCCOCCNc3cccc4c3C(=O)N(C3CCC(=O)NC3=O)C4=O)nn2)C1` (stereo not given in full), the DC50 [11] was greater than 6 nM, the Emax [12] was greater than 94% and the DC50 [13] was less than 12 nM. For the same compound, the Emax [14] was greater than 94%.
`CC(C)(C)c1cnc(CSc2cnc(NC(=O)C3CCN(CC(=O)NCCOCCOCCOCCNc4cccc5c4C(=O)N(C4CCC(=O)NC4=O)C5=O)CC3)s2)o1` (stereo not given) showed a DC50 [15] of less than 250 nM and an Emax [16] greater than 95%.
Compound `Cc1ncsc1-c1ccc(CNC(=O)[C@@H]2C[C@@H](O)CN2C(=O)[C@@H](NC(=O)COCCOCCOCCOCCOc2cc3nccc(Nc4ccc5scnc5c4)c3cc2S(=O)(=O)C(C)(C)C)C(C)(C)C)cc1` has an Emax [17] greater than 95%.
Work on `CC[C@H](C(=O)N1CCCC[C@H]1C(=O)O[C@H](CCc1ccc(OC)c(OC)c1)c1ccccc1OCC(=O)NCCCCCCOc1cccc2c1C(=O)N(C1CCC(=O)NC1=O)C2=O)c1cc(OC)c(OC)c(OC)c1` (stereo not given in full) yielded an Emax (Homo sapiens) of 82% and a DC50 [18] of less than 100 nM.
Compound `Cc1sc2c(c1C)C(c1ccc(Cl)cc1)=N[C@@H](CC(=O)NCCCCNC(=O)COc1cccc3c1C(=O)N(C1CCC(=O)NC1=O)C3=O)c1nnc(C)n1-2` (stereo not given in full) has an Emax [19] of 95%.
